Assay results from article PMC9729598 (Bioorganic Chemistry, 2022).
Where “and” joins values, the source holds several entries; their conditions need not be identical. Identical values can stand only once.

Legend:
pSARS-CoV-2 = type: cell-based, SARS-CoV-2
SARS 3CL protease = conditions: read-out: IC50 on SARS 3CL protease activity; cited from earlier work
SARS-CoV-2 3CL protease = SARS-CoV-2 3CL protease (Severe acute respiratory syndrome coronavirus 2, UniProt P0DTD1); assay: biochemical; conditions: for inhibition at 100 µM: read-out: inhibition rate against 3CL (%)

C=C(C)[C@@H]1CC[C@]2(C(=O)OCCCCC)CC[C@]3(C)[C@H](CC[C@@H]4[C@@]5(C)CC[C@H](O[C@@H]6O[C@H](CO)[C@@H](O[C@@H]7O[C@@H](C)[C@H](O)[C@@H](O)[C@H]7O)[C@H](O)[C@H]6O[C@@H]6O[C@@H](C)[C@H](O)[C@@H](O)[C@H]6O)C(C)(C)[C@@H]5CC[C@]43C)[C@@H]12 [BA-6, n-Pentyl-3β-O-[2,4-di-O-(α-l-rhamnopyranosyl)-β-d-glucopyranosyl]-lup-20 (29)-ene-28-oic acid]
CC50 (293 T-ACE2 cells): 24.4 ± 0.33 µM | fold increased toxic (293 T-ACE2 cells): 1.7 fold | EC50 (pSARS-CoV-2): 5.37 ± 0.37 µM | SI (pSARS-CoV-2): 4.54

2′-Oxopethyl-3β-O-[2, 4-di-O-(α-l-rhamnopyranosyl)-β-d-glucopyranosyl]-lup-20 (29)-ene-28-oic acid [BA-13]
CC50 (293 T-ACE2 cells): 36.2 ± 0.75 µM | EC50 (pSARS-CoV-2): 8.61 ± 0.47 µM | SI (pSARS-CoV-2): 4.21

C=C(C)[C@@H]1CC[C@]2(C(=O)OCCCCCC)CC[C@]3(C)[C@H](CC[C@@H]4[C@@]5(C)CC[C@H](O[C@@H]6O[C@H](CO)[C@@H](O[C@@H]7O[C@@H](C)[C@H](O)[C@@H](O)[C@H]7O)[C@H](O)[C@H]6O[C@@H]6O[C@@H](C)[C@H](O)[C@@H](O)[C@H]6O)C(C)(C)[C@@H]5CC[C@]43C)[C@@H]12 [BA-7, n-Hexyl-3β-O-[2,4-di-O-(α-l-rhamnopyranosyl)-β-d-glucopyranosyl]-lup-20 (29)-ene-28-oic acid]
CC50 (293 T-ACE2 cells): 16.4 ± 0.19 µM | fold increased toxic (293 T-ACE2 cells): 2.5 fold | EC50 (pSARS-CoV-2): 5.54 ± 0.81 µM | SI (pSARS-CoV-2): 2.96

C=C(C)[C@@H]1CC[C@]2(C(=O)OC(C)C)CC[C@]3(C)[C@H](CC[C@@H]4[C@@]5(C)CC[C@H](O[C@@H]6O[C@H](CO)[C@@H](O[C@@H]7O[C@@H](C)[C@H](O)[C@@H](O)[C@H]7O)[C@H](O)[C@H]6O[C@@H]6O[C@@H](C)[C@H](O)[C@@H](O)[C@H]6O)C(C)(C)[C@@H]5CC[C@]43C)[C@@H]12 [BA-8, Isopropyl-3β-O-[2,4-di-O-(α-l-rhamnopyranosyl)-β-d-glucopyranosyl]-lup-20 (29)-ene-28-oic acid]
CC50 (293 T-ACE2 cells): 47.2 ± 0.63 µM | EC50 (pSARS-CoV-2): 6.05 ± 0.38 µM | SI (pSARS-CoV-2): 7.81

C=C(C)[C@@H]1CC[C@]2(C(=O)OCC)CC[C@]3(C)[C@H](CC[C@@H]4[C@@]5(C)CC[C@H](O[C@@H]6O[C@H](CO)[C@@H](O[C@@H]7O[C@@H](C)[C@H](O)[C@@H](O)[C@H]7O)[C@H](O)[C@H]6O[C@@H]6O[C@@H](C)[C@H](O)[C@@H](O)[C@H]6O)C(C)(C)[C@@H]5CC[C@]43C)[C@@H]12 [BA-3, Ethyl-3β-O-[2,4-di-O-(α-l-rhamnopyranosyl)-β-d-glucopyranosyl]-lup-20 (29)-ene-28-oic acid]
CC50 (293 T-ACE2 cells): 36.1 ± 1.05 µM | EC50 (pSARS-CoV-2): 3.7 ± 0.72 µM | SI (pSARS-CoV-2): 9.76

C=C(C)[C@@H]1CC[C@]2(C(=O)O)CC[C@]3(C)[C@H](CC[C@@H]4[C@@]5(C)CC[C@H](O)C(C)(C)[C@@H]5CC[C@]43C)[C@@H]12 [BA, Betulinic acid]
IC50 (SARS 3CL protease): 10 µM | inhibition rate against 3CL (%) (SARS-CoV-2 3CL protease): 51.4% | inhibition at 100 µM (SARS-CoV-2 3CL protease): 72.2%

C=C(C)C1CCC2(C(=O)OC3CCCCC3)CCC3(C)C(CCC4C5(C)CCC(OC6OC(CO)C(OC7OC(C)C(O)C(O)C7O)C(O)C6OC6OC(C)C(O)C(O)C6O)C(C)(C)C5CCC43C)C12 (stereo not drawn) [BA-9, Cyclohexyl-3β-O-[2,4-di-O-(α-l-rhamnopyranosyl)-β-d-glucopyranosyl]-lup-20 (29)-ene-28-oic acid]
EC50 (pSARS-CoV-2): > 20 µM | activity against pSARS-CoV-2 (pSARS-CoV-2): entirely lost

O=c1c2ccccc2[se]n1-c1ccccc1 [Ebselen]
inhibition rate against 3CL (%) (SARS-CoV-2 3CL protease): 97.6% and 96.2% | inhibition at 100 µM (SARS-CoV-2 3CL protease): 98.5%

C=C(C)C1CCC2(C(=O)OCCO)CCC3(C)C(CCC4C5(C)CCC(OC6OC(CO)C(OC7OC(C)C(O)C(O)C7O)C(O)C6OC6OC(C)C(O)C(O)C6O)C(C)(C)C5CCC43C)C12 (stereo not drawn) [BA-12, 2′-Hydroxylethyl-3β-O-[2,4-di-O-(α-l-rhamnopyranosyl)-β-d-glucopyranosyl]-lup-20 (29)-ene-28-oic acid]
EC50 (pSARS-CoV-2): > 20 µM | activity against pSARS-CoV-2 (pSARS-CoV-2): total loss of potency

C=C(C)[C@@H]1CC[C@]2(C(=O)OCCCC)CC[C@]3(C)[C@H](CC[C@@H]4[C@@]5(C)CC[C@H](O[C@@H]6O[C@H](CO)[C@@H](O[C@@H]7O[C@@H](C)[C@H](O)[C@@H](O)[C@H]7O)[C@H](O)[C@H]6O[C@@H]6O[C@@H](C)[C@H](O)[C@@H](O)[C@H]6O)C(C)(C)[C@@H]5CC[C@]43C)[C@@H]12 [BA-5, n-Butyl-3β-O-[2,4-di-O-(α-l-rhamnopyranosyl)-β-d-glucopyranosyl]-lup-20 (29)-ene-28-oic acid]
CC50 (293 T-ACE2 cells): 76.5 ± 1.23 µM | EC50 (pSARS-CoV-2): 6.42 ± 0.2 µM | SI (pSARS-CoV-2): 11.91

C=C(C)[C@@H]1CC[C@]2(C(=O)OCCCl)CC[C@]3(C)[C@H](CC[C@@H]4[C@@]5(C)CC[C@H](O[C@@H]6O[C@H](CO)[C@@H](O[C@@H]7O[C@@H](C)[C@H](O)[C@@H](O)[C@H]7O)[C@H](O)[C@H]6O[C@@H]6O[C@@H](C)[C@H](O)[C@@H](O)[C@H]6O)C(C)(C)[C@@H]5CC[C@]43C)[C@@H]12 [BA-10, 2′-Chloroethyl-3β-O-[2,4-di-O-(α-l-rhamnopyranosyl)-β-d-glucopyranosyl]-lup-20 (29)-ene-28-oic acid]
CC50 (293 T-ACE2 cells): 51.8 ± 1.35 µM | EC50 (pSARS-CoV-2): 7.67 ± 0.31 µM | SI (pSARS-CoV-2): 6.75 | fold decreased potency (pSARS-CoV-2): 2.4 fold

C=C(C)[C@@H]1CC[C@]2(C(=O)OCC3CC3)CC[C@]3(C)[C@H](CC[C@@H]4[C@@]5(C)CC[C@H](O[C@@H]6O[C@H](CO)[C@@H](O[C@@H]7O[C@@H](C)[C@H](O)[C@@H](O)[C@H]7O)[C@H](O)[C@H]6O[C@@H]6O[C@@H](C)[C@H](O)[C@@H](O)[C@H]6O)C(C)(C)[C@@H]5CC[C@]43C)[C@@H]12 [BA-15, Cyclopropylmethyl-3β-O-[2,4-di-O-(α-l-rhamnopyranosyl)-β-d-glucopyranosyl]-lup-20 (29)-ene-28-oic acid]
CC50 (293 T-ACE2 cells): 75.5 ± 1.63 µM | EC50 (pSARS-CoV-2): 15.9 ± 0.82 µM | SI (pSARS-CoV-2): 4.75 | fold decreased potency (pSARS-CoV-2): 4.9 fold

C=CCOC(=O)[C@]12CC[C@@H](C(=C)C)[C@@H]1[C@H]1CC[C@@H]3[C@@]4(C)CC[C@H](O[C@@H]5O[C@H](CO)[C@@H](O[C@@H]6O[C@@H](C)[C@H](O)[C@@H](O)[C@H]6O)[C@H](O)[C@H]5O[C@@H]5O[C@@H](C)[C@H](O)[C@@H](O)[C@H]5O)C(C)(C)[C@@H]4CC[C@@]3(C)[C@]1(C)CC2 [BA-14, Allyl-3β-O-[2,4-di-O-(α-l-rhamnopyranosyl)-β-d-glucopyranosyl]-lup-20 (29)-ene-28-oic acid]
CC50 (293 T-ACE2 cells): 84.62 ± 0.76 µM | EC50 (pSARS-CoV-2): 8.23 ± 0.55 µM | SI (pSARS-CoV-2): 10.28 | fold decreased potency (pSARS-CoV-2): 2.6 fold

C=C(C)[C@@H]1CC[C@]2(C(=O)OCCBr)CC[C@]3(C)[C@H](CC[C@@H]4[C@@]5(C)CC[C@H](O[C@@H]6O[C@H](CO)[C@@H](O[C@@H]7O[C@@H](C)[C@H](O)[C@@H](O)[C@H]7O)[C@H](O)[C@H]6O[C@@H]6O[C@@H](C)[C@H](O)[C@@H](O)[C@H]6O)C(C)(C)[C@@H]5CC[C@]43C)[C@@H]12 [BA-11, 2′-Bromoethyl 3β-O-[2,4-di-O-(α-l-rhamnopyranosyl)-β-d-glucopyranosyl]-lup-20 (29)-ene-28-oic acid]
CC50 (293 T-ACE2 cells): 46.12 ± 0.31 µM | EC50 (pSARS-CoV-2): 9.03 ± 0.56 µM | SI (pSARS-CoV-2): 5.11
